What was measured:
[1] = Pharmacokinetics after oral gavage to male beagle dogs with different pre-treatments (Amgen study 150528); assay type: in vivo; conditions: 3 mg/kg PO; for AUCt / Cl/F / Cmax / Tmax / T½: male beagle dogs
Description: The pharmacokinetics of AMG 397 were assessed following oral administration to male beagle dogs as either a suspension of the crystalline hydrate form of AMG 397 or an amorphous suspension in 2% HPMC, 0.01% Tween 80. The full protocol is described in Amgen study number 150528. The goal of this study was to determine if the amorphous material would lead to increases in bioavailability and if variability in dosing could be reduced. In addition, oncology patients could be receiving acid-reducing agents as co-medication, so it is important to determine if exposure is reduced with elevated stomach pH and if an amorphous formulation of AMG 397 could overcome the drug-drug interaction (DDI). For the studies below, Form 1 is the crystalline hydrate form of AMG 397 and amorphous is the amorphous form of AMG 397.
Briefly, during each phase five male beagle dogs were assigned to each group of the study. All animals were fasted for at least eight hours prior to dosing and through the first four hours of blood sample collection for each phase. Food was returned within 30 minutes following collection of the last blood sample at the four-hour collection interval. Each animal in Phase 1, received a single oral (PO) gavage dose of the appropriate test article formulation as outlined in the study design Table 6. Oral gavage dosing formulations were continuously stirred throughout dosing. The gavage tube was rinsed with approximately 10 mL of tap water following dosing (prior to removal of the gavage tube). Following each study phase a 7-day washout period was allowed prior to the dosing of the next phase. The same five dogs were assigned to either group 1 or group 2 formulations for the duration of the study.
Test Article Administration: A total of 10 male beagle dogs were initially assigned to study. All animals were fasted for at least eight hours prior to dosing and through the first four hours of blood sample collection for each phase, where applicable (food will be returned within 30 minutes following collection of the last blood sample at the four hour collection interval, where applicable). Total fasting time […] 24 hours.
(§1) Each animal in Phase 1, Groups 1 and 2 received a single oral (PO) gavage dose of the appropriate test article formulation as outlined in the following study design table. Oral gavage dosing formulations was continuously stirred throughout dosing. The gavage tube was rinsed with approximately 10 mL of tap water following dosing (prior to removal of the gavage tube). No pre-treatment will be required for Phase 1.
as §1, with “After a 7-day washout period, each” for “Each”, “2,” for “1,”, “land” for “1 and”, “were” for “was”, “Two hours prior to dosing, each animal received two 20 mg (40 mg total) oral tablets of famotidine followed by a 10 mL dose of deionized water.” for “No pre-treatment will be required for Phase 1.”
After another 7-day washout period, each animal in Phase 3, Groups land 2 received a single oral (PO) gavage dose of the appropriate test article formulation as outlined in the following study design table. Oral gavage dosing formulations were continuously stirred throughout dosing. The gavage tube was rinsed with approximately 10 mL of tap water following dosing (prior to removal of the gavage tube). Thirty minutes prior to dosing, each animal received an intramuscular dose of pentagastrin in phosphate buffered saline at a dose level of 0.006 mg/kg and a dose volume of 0.05 mL/kg.
After a final 7-day washout period, each animal in Phase 4, Groups 1 and 2 received a single oral (PO) gavage dose of the appropriate test article formulation as outlined in the following study design table. Oral gavage dosing formulations were continuously stirred throughout dosing. […]

[2] = 2-stage micro-dissolution (faSSGF then faSSIF), amorphous vs crystalline hydrate; assay type: physicochemical
Description: A 2-stage micro-dissolution experiment was performed to compare the dissolution of the amorphous AMG 397 drug substance to the crystalline hydrate form of AMG 397, as shown in FIG. 5. […] Upon dilution with fasted simulated intestinal fluid (faSSIF, pH 6.0 after dilution) the concentration of the amorphous material was seen to drop before increasing over the next 10 minutes and reaching a plateau. No precipitation of the amorphous material was observed, and it maintained at 5× higher concentration than the crystalline hydrate form of AMG 397 for the duration of the experiment. […] Unlike the amorphous material no further dissolution occurred once the media was switched to faSSIF.

[3] = Phase 2, famotidine pre-treatment (stomach pH ~6.5)
[4] = Phase 3, pentagastrin pre-treatment (stomach pH ~2.0)
[5] = Phase 4, pentagastrin pre-treatment + P-gp inhibitor GF120918

CO[C@]1(CN2CCN3CCCC[C@@H]3C2)/C=C/C[C@H](C)[C@@H](C)S(=O)(=O)NC(=O)c2ccc3c(c2)N(C[C@@H]2CC[C@H]21)C[C@@]1(CCCc2cc(Cl)ccc21)CO3 [AMG 397 Amorphous]
AUCt ([1]; Phase 1, no pre-treatment): 17.3 µM·h | Cl/F ([1]; Phase 1, no pre-treatment): 0.4 L/h/kg | Cmax ([1]; Phase 1, no pre-treatment): 790 nM | Tmax ([1]; Phase 1, no pre-treatment): 3.1 h | T½ ([1]; Phase 1, no pre-treatment): 18.4 h | AUCt [1, 3]: 21.1 µM·h | Cl/F [1, 3]: 0.22 L/h/kg | Cmax [1, 3]: 900 nM | Tmax [1, 3]: 8.1 h | T½ [1, 3]: 19.7 h | AUCt [1, 4]: 18 µM·h | Cl/F [1, 4]: 0.26 L/h/kg | Cmax [1, 4]: 780 nM | Tmax [1, 4]: 10.4 h | T½ [1, 4]: 18.3 h | AUCt [1, 5]: 26.0 µM·h | Cl/F [1, 5]: 0.26 L/h/kg | Cmax [1, 5]: 950 nM | Tmax [1, 5]: 12.4 h | T½ [1, 5]: 16.5 h | Effect of stomach pH on exposure ([1]; beagle dogs): not affected by stomach pH | Bioavailability relative to the crystalline hydrate form ([1]; stomach pH elevated, beagle dogs): 3.4 fold | Bioavailability relative to the crystalline hydrate form ([1]; stomach pH low, beagle dogs): 1.6 fold | Concentration relative to the crystalline hydrate form ([2]; after dilution with faSSIF (pH 6.0), maintained for the duration of the experiment): 5 × | Concentration relative to the crystalline hydrate form ([2]; simulated gastric fluid (faSSGF), after 20 minutes): ~8 ×
